From patent US8815809B2, “Cysteine protease inhibitors” (Medivir UK Ltd, priority 2009, dated 2014)
pKi: −log10 of the molar value.

How the values were obtained:
Assay type in all cases: biochemical
human cathepsin S = biological target: T1, human cathepsin S (Homo sapiens, UniProt P25774); test: Cathepsin S Ki determination; details: baculovirus-expressed human cathepsin S, boc-Val-Leu-Lys-AMC substrate, pH 6.5; read-out: Ki Cat. S
T1 construct: made in house; host or cells: baculovirus expression system
Protocol: The assay uses baculovirus-expressed human cathepsin S and the boc-Val-Leu-Lys-AMC fluorescent substrate available from Bachem in a 384 well plate format, in which 7 test compounds can be tested in parallel with a positive control comprising a known cathepsin S inhibitor comparator.
280 μL/well of 12.5% DMSO are added to rows B-H of two columns of a 96 deep well polypropylene plate. 70 μL/well of substrate is added to row A. 2×250 μL/well of assay buffer (100 mM Na phosphate, 100 mM NaCl, pH 6.5) is added to row A, mixed, and double diluted down the plate to row H.
100 μL/well of assay buffer is added to columns 2-5 and 7-12 of 4 rows of a 96 well V bottom polypropylene plate. 200 μL/well of assay buffer is added to columns 1 and 6.
The first test compound prepared in DMSO is added to column 1 of the top row, typically at a volume to provide between 10 and 30 times the initially determined rough K1. The rough K, is calculated from a preliminary run in which 10 μL/well of 1 mM boc-VLK-AMC (1/10 dilution of 10 mM stock in DMSO diluted into assay buffer) is dispensed to rows B to H and 20 μl/well to row A of a 96 well Microfluor™ plate. 2 μl of each 10 mM test compound is added to a separate well on row A, columns 1-10. Add 90 μl assay buffer containing 1 mM DTT and 2 nM cathepsin S to each well of rows B-H and 180 μl to row A. Mix row A using a multichannel pipette and double dilute to row G. Mix row H and read in the fluorescent spectrophotometer.
The second test compound is added to column 6 of the top row, the third to column 1 of the second row etc. Add 1 μL of comparator to column 6 of the bottom row. Mix column 1 and double dilute to column 5. Mix column 6 and double dilute to column 10.
Using an 8-channel multistepping pipette set to 5×10 μL, distribute 10 μL/well of substrate to the 384 well assay plate. Distribute the first column of the substrate dilution plate to all columns of the assay plate starting at row A. The tip spacing of the multichannel pipette will correctly skip alternate rows. Distribute the second column to all columns starting at row B.
Using a 12-channel multistepping pipette set to 4×10 μL, distribute 10 μL/well of inhibitor to the 384 well assay plate. Distribute the first row of the inhibitor dilution plate to alternate rows of the assay plate starting at A1. The tip spacing of the multichannel pipette will correctly skip alternate columns. Similarly, distribute the second, third and fourth rows to alternate rows and columns starting at A2, B1 and B2 respectively.
Mix 20 mL assay buffer and 20 μL 1M DTT. Add sufficient cathepsin S to give 2 nM final concentration.
Using the a distributor such as a Multidrop 384, add 30 μL/well to all wells of the assay plate and read in fluorescent spectrophotometer such as an Ascent.
Fluorescent readings, (excitation and emission wavelengths 390 nm and 460 nm respectively, set using bandpass filters) reflecting the extent of enzyme cleavage of the fluorescent substrate, […] the inhibitor, are linear rate fitted for each well.
Fitted rates for all wells for each inhibitor are fitted to the competitive inhibition equation using SigmaPlot 2000 to determine V, Km and Ki values.
(§1) Potential inhibitors are screened using the above assay with variable concentrations of test compound. Reactions were initiated by addition of enzyme to buffered solutions of substrate and inhibitor. Ki values were calculated according to equation 1.
(§2) [formula] where v0 is the velocity of the reaction, V is the maximal velocity, S is the concentration of substrate with Michaelis constant of KM, and I is the concentration of inhibitor.

cathepsin K = biological target: T2, cathepsin K (Homo sapiens, UniProt P43235); test: Determination of cathepsin K proteolytic catalytic activity (Ki); details: human recombinant enzyme, H-D-Ala-Leu-Lys-AMC substrate; read-out: Ki Cat. K
T2 construct: made in house; host or cells: not fixed: E. coli, Pichia or Baculovirus systems are named as options
T2 sequence (P43235 115-329): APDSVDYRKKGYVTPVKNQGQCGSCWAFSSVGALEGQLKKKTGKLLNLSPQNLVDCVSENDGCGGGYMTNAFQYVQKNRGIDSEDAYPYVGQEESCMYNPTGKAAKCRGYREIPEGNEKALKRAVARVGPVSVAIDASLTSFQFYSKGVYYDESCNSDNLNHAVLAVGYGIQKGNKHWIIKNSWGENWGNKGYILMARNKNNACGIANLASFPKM
Protocol: Convenient assays for cathepsin K are carried out using human recombinant enzyme, such as that described in PDB.
The recombinant cathepsin K can be expressed in a variety of commercially available expression systems including E. coli, Pichia and Baculovirus systems. The purified enzyme is activated by removal of the prosequence by conventional methods.
Standard assay conditions for the determination of kinetic constants used a fluorogenic peptide substrate, typically H-D-Ala-Leu-Lys-AMC, and were determined in either 100 mM Mes/Tris, pH 7.0 containing 1 mM EDTA and 10 mM 2-mercaptoethanol or 100 mM Na phosphate, imM EDTA, 0.1% PEG4000 pH 6.5 or 100 mM Na acetate, pH 5.5 containing 5 mM EDTA and 20 mM cysteine, in each case optionally with […] as stabiliser. The enzyme concentration used was 5 nM. The stock substrate solution was prepared at 10 mM in DMSO. Screens were carried out at a fixed substrate concentration of 60 μM and detailed kinetic studies with doubling dilutions of substrate from 250 μM. The total DMSO concentration in the assay was kept below 3%. All assays were conducted at ambient temperature. Product fluorescence (excitation at 390 nm, emission at 460 nm) was monitored with a Labsystems Fluoroskan Ascent fluorescent plate reader. Product progress curves were generated over 15 minutes following generation of AMC product.
as §1, §2

human cathepsin L = human cathepsin L (Homo sapiens, UniProt P07711); test: Cathepsin L Ki; details: H-D-Val-Leu-Lys-AMC substrate, pH 5.5, read-out: Ki Cat. L
Protocol: The procedure above with the following amendments is used for the determination of Ki for cathepsin L.
The enzyme is commercially available human cathepsin L (for example Calbiochem). The substrate is H-D-Val-Leu-Lys-AMC available from Bahcem. The assay buffer is 100 mM sodium acetate 1 mM EDTA, pH5.5) The DMSO stock (10 mM in 100% DMSO) is diluted to 10% in assay buffer. Enzyme is prepared at 5 nM concentration in assay buffer plus 1 mM dithiothreitol just before use. 2 μL of 10 mM inhibitor made up in 100% DMSO is dispensed into row A. 10 μL of 50 μM substrate (=1/200 dilution of 10 mM stock in DMSO, diluted in assay buffer).
as §1, §2

human cathepsin L, sequence (P07711 114-333): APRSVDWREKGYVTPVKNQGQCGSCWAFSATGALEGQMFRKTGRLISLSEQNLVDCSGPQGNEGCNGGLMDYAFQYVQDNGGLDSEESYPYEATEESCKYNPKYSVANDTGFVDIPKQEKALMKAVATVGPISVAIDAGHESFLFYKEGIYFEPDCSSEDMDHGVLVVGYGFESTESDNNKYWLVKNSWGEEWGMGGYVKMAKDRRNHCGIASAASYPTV
T1 sequence (P25774 115-331): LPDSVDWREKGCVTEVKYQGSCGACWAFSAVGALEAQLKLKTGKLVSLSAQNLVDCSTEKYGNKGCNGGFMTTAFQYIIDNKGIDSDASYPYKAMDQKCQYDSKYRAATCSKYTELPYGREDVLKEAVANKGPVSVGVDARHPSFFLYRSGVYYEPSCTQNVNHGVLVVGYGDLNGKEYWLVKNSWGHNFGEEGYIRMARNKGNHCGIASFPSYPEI

Row | Compound | pKi (human cathepsin S) | pKi (cathepsin K) | pKi (human cathepsin L)
1 | COC(=O)N[C@@H](CC1(C)CCCC1)C(=O)N[C@]1(C(=O)C(=O)Nc2ccn(C)n2)C[C@@H](F)C1 [Example 1] | 8.44 | 5.96 | 5.32
2 | CCOC(=O)NC(CC(C)(C)C)C(=O)NC1(C(=O)C(=O)Nc2ccn(C)n2)CC(F)C1 (stereo not drawn) [Example 4] | 7.96 | 6.37 | 5.48
3 | CCOC(=O)NC(CC1(C)CCCC1)C(=O)NC1(C(=O)C(=O)Nc2ccn(C)n2)CC(F)C1 (stereo not drawn) [Example 8] | 9.00 | 5.92 | 5.48
4 | Cn1ccc(NC(=O)C(=O)C2(NC(=O)[C@H](CC3(F)CCCC3)NC(=O)OC(C)(C)C)CC(F)(F)C2)n1 [Example 10] | 9.26 | 6.77 | 6.44
5 | Cn1cnc(NC(=O)C(=O)C2(NC(=O)[C@H](CC3(C)CCCC3)NC(=O)OC(C)(C)C)CCC2)c1 [Example 11] | 9.00 | 6.21 | 5.96
6 | Cn1ccc(NC(=O)C(=O)C2(NC(=O)C(CC3(C)CCC3)NC(=O)OC(C)(C)C)CC(F)C2)n1 (stereo not drawn) [Example 19] | 8.33 | 6.82 | 6.48
7 | Cc1csc(NC(=O)C(=O)C2(NC(=O)[C@H](CC3(C)CCCC3)NC(=O)OC(C)(C)C)CCC2)n1 [Example 20] | 7.52 | 4.02 | < 3.70
8 | CC(C)(C)OC(=O)N[C@@H](CC1(F)CCCC1)C(=O)NC1(C(=O)C(=O)NC2CC2)CC(F)C1 (stereo partly drawn) [Example 22] | 7.85 | 5.42 | 4.60

Further lines, results first:

Row | pKi (human cathepsin S) | pKi (cathepsin K) | pKi (human cathepsin L) | Compound
9 | 9.10 | 6.60 | 5.96 | COC1CC(NC(=O)[C@H](CC2(F)CCCC2)NC(=O)OC(C)(C)C)(C(=O)C(=O)Nc2ccn(C)n2)C1 (single isomer, unassigned) [Example 73, {2-(1-Fluoro-cyclopentyl)-1-[3-methoxy-1-(1-methyl-1H-pyrazol-3-ylaminooxalyl)-cyclobutylcarbamoyl]-ethyl}-carbamic acid tert-butyl ester]
10 | 8.11 | 5.36 | 5.00 | CC1(C[C@H](NC(=O)OC(C)(C)C)C(=O)NC2(C(=O)C(=O)NC3CC3)CCC2)CCCC1 [Example 24]
11 | 8.74 | 6.39 | 5.92 | CC(C)OC(=O)NC(CC1(F)CCCC1)C(=O)NC1(C(=O)C(=O)Nc2ccn(C)n2)CC(F)C1 (stereo not drawn) [Example 31]
12 | 8.22 | 5.96 | 6.07 | Cn1ccc(NC(=O)C(=O)C2(NC(=O)C(CC3CCCC3)NC(=O)OC(C)(C)C)CC(F)C2)n1 (stereo not drawn) [Example 45]
13 | 9.19 | 6.62 | 6.18 | COC1CC(NC(=O)[C@H](CC2(F)CCCC2)NC(=O)OC(C)(C)C)(C(=O)C(=O)Nc2ccn(C)n2)C1 (stereo partly drawn) [Example 49]
14 | 9.19 | 7.00 | 6.25 | [2H]C([2H])([2H])n1ccc(NC(=O)C(=O)C2(NC(=O)C(CC3(F)CCCC3)NC(=O)OC(C)(C)C)CC(F)C2)n1 (stereo not drawn) [Example 50]
15 | 9.40 | 7.01 | 6.57 | Cn1ccc(NC(=O)C(=O)C2(NC(=O)[C@H](CC3(F)CCCC3)NC(=O)OC(C)(C)C)CCC2)n1 [Example 52]
16 | 8.74 | 6.36 | 6.00 | CC(CF)OC(=O)NC(CC1(F)CCCC1)C(=O)NC1(C(=O)C(=O)Nc2ccn(C)n2)CCC1 (stereo not drawn) [Example 56, {2-(1-Fluoro-cyclopentyl)-1-[1-(1-methyl-1H-pyrazol-3-ylaminooxalyl)-cyclobutylcarbamoyl]-ethyl}-carbamic acid 2-fluoro-1-methyl-ethyl ester]
17 | 9.10 | 6.54 | 6.14 | CC(C)(C)OC(=O)N[C@@H](CC1(F)CCCC1)C(=O)NC1(C(=O)C(=O)Nc2cc[nH]n2)CCC1 [Example 57, {2-(1-Fluoro-cyclopentyl)-1-[1-(1H-pyrazol-3-ylaminooxalyl)-cyclobutylcarbamoyl]-ethyl}-carbamic acid tert-butyl ester]
18 | 8.66 | 6.47 | 5.68 | Cn1ccc(NC(=O)C(=O)C2(NC(=O)[C@H](CC3(F)CCCC3)NC(=O)OC3COC3)CCC2)n1 [Example 59, {2-(1-Fluoro-cyclopentyl)-1-[1-(1-methyl-1H-pyrazol-3-ylaminooxalyl)-cyclobutylcarbamoyl]-ethyl}-carbamic acid oxetan-3-yl ester]
19 | 7.66 | 5.85 | 5.31 | CCOC(=O)N[C@@H](CC1(F)CCCC1)C(=O)NC1(C(=O)C(=O)NCCCN2CCN(C)CC2)CCC1 [Example 63]
20 | 8.96 | 6.19 | 5.62 | CCOC(=O)NC(CC1(F)CCCC1)C(=O)NC1(C(=O)C(=O)Nc2ccn(C)n2)CC(OC)C1 (stereo not drawn) [Example 68]
21 | 9.15 | 5.85 | 5.68 | CCOC(=O)NC(CC1(C)CCCC1)C(=O)NC1(C(=O)C(=O)Nc2ccn(C)n2)CC(OC)C1 (stereo not drawn) [Example 70]
